Source: patent publication US9066516B2, “Uses of thaxtomin and thaxtomin compositions as herbicides” (priority 2008, dated 2015)

Legend:
[1] = tested on: wheat (Triticum aestivum var. PR1404); assay: Pot study, phytotoxicity on wheat (Example 2); assay type: in vivo; conditions: 0.5 and 1.0 mg/mL, 7, 14 and 21 days after treatment
Protocol: A pot study is conducted to test the phytotoxicity of thaxtomin A on corn (Zea mays var. Early Sunglow) and wheat (Triticum aestivum var. PR1404). To confirm the activity on broadleaf weeds, pigweed (Amaranthus sp.) is planted in the same pot with either three corn or five wheat seeds, and sprayed simultaneously with the cereal test plants. The less than 3-inch tall plants grown under growth lights (12-h light/12-h dark) at 28° C. are sprayed with thaxtomin A solutions derived from a liquid culture of S. acidiscabies containing 0.5, and 1.0 mg thaxtomin A per mL of solvent (4% ethanol and 0.2% non-ionic surfactant). A solution of 4% ethanol +0.2% non-ionic surfactant without thaxtomin A is used as a control treatment. Each treatment is conducted in three replicates. Treated plants are kept at 28° C. under growth lights and observed at three time points—7, 14 and 21 days after treatment—for visual symptoms of phytotoxicity on corn and wheat and % control of pigweed.

[2] = tested on: Lambsquarter—Chenopodium album; assay: Greenhouse weed control by S. acidiscabies extract (Example 4); assay type: in vivo; conditions: Common lambsquarter; 0.5 mg/mL
Protocol: (§1) A strain of S. acidiscabies (ATCC-49003) is grown in oat bran broth for 5 days (25° C., 200 rpm). The whole cell broth with thaxtomin A is extracted using XAD resin. The dried crude extract was resuspended in 4% ethanol and 0.02% non-ionic surfactant at a concentration of 10 mg/mL, and the solutions with two different concentrations of thaxtomin A (0.5 and 1.0 mg/mL) are tested the following broadleaf weed species:
(§2) All plant species are tested in 4″×4″ plastic pots in three replicates. The untreated control plants are sprayed with the carrier solution (4% Ethanol, 0.02% glycosperse) and the positive control plants with Roundup at a rate corresponding to 1 fl. oz/acre. Treated plants are kept in a greenhouse under 12 h light/12 h dark conditions.

[3] = tested on: Nightshade, Black—Solanum nigrum; assay: as above; assay type: in vivo; conditions: 0.5 mg/mL
Protocol: as §1, §2

[4] = tested on: crabgrass; assay: Greenhouse synergy test MBI-005 + field crop herbicides (Example 11); assay type: in vivo; conditions: 14 days
Protocol: […] other herbicides commonly used for field crops, glyphosate, glufosinate, synthetic version of bialaphos, and mesotrione were also tested for synergy with MBI-005 on crabgrass and ragweed.
There were 3 replicates per treatment which were sprayed with approximately ⅔ ml per replicate. The treatments were completely randomized and kept in a greenhouse at 25° C. The efficacy was rated at 7 and 14 days post treatment.

[5] = tested on: Arrowhead (Sagittaria montevidensis); assay: Post-emergence test of MBI-005, field (Example 13); assay type: in vivo
Protocol: (§3) In field testing, field soil containing weeds at the 1-5 leaf stage were treated with 38.2 L MBI-005/ha at a spray volume of 374 L/ha. Treatments, including water as the negative control and WeedBGon or Preen Broadleaf as the positive control, were replicated four times and applied twice at a four week interval. The positive control on Late watergrass, Ricefield Bulrush, Smallflower sedge and Arrowhead was an herbicide containing as active ingredient 2,4-D and an organosilicone surfactant was added to MBI-005. Treatments were assessed for % control and % ground cover.

[6] = tested on: Bermuda buttercup (Oxalis pes-caprae); assay: Post-emergence test of MBI-005, field (Example 13); assay type: in vivo
Protocol: as §3

[7] = tested on: Bluegrass (Poa annua); assay: Post-emergence test of MBI-005, field (Example 13); assay type: in vivo
Protocol: as §3

[8] = tested on: Clover (Trifolium hirtum); assay: Post-emergence test of MBI-005, field (Example 13); assay type: in vivo
Protocol: as §3

[9] = tested on: Common chickweed (Stellaria media); assay: Post-emergence test of MBI-005, field (Example 13); assay type: in vivo
Protocol: as §3

[10] = tested on: Common groundsel (Senecio vulgaris); assay: Post-emergence test of MBI-005, field (Example 13); assay type: in vivo
Protocol: as §3

[11] = tested on: Common yellow oxalis (Oxalis pes-caprae); assay: Post-emergence test of MBI-005, field (Example 13); assay type: in vivo
Protocol: as §3

[12] = tested on: Eclipta (Eclipta alba); assay: Post-emergence test of MBI-005, field (Example 13); assay type: in vivo
Protocol: as §3

[13] = tested on: Flexuous bittercress (Cardamine flexuosa); assay: Post-emergence test of MBI-005, field (Example 13); assay type: in vivo
Protocol: as §3

[14] = tested on: Hairy bittercress (Cardamine hirsuta); assay: Post-emergence test of MBI-005, field (Example 13); assay type: in vivo
Protocol: as §3

[15] = tested on: Hairy galinsoga (Galinsoga ciliata); assay: Post-emergence test of MBI-005, field (Example 13); assay type: in vivo
Protocol: as §3

[16] = tested on: Henbit (Lamimum amplexicaule); assay: Post-emergence test of MBI-005, field (Example 13); assay type: in vivo
Protocol: as §3

[17] = tested on: Late watergrass (Echinochloa phyllopogon); assay: Post-emergence test of MBI-005, field (Example 13); assay type: in vivo
Protocol: as §3

[18] = tested on: Marsh watercress (Rorippa islandica); assay: Post-emergence test of MBI-005, field (Example 13); assay type: in vivo
Protocol: as §3

[19] = tested on: Nightshade, Eastern Black (Solanum ptychanthum); assay: Post-emergence test of MBI-005, field (Example 13); assay type: in vivo
Protocol: as §3

[20] = tested on: Ricefield bullrush (Scirpus mucronatus); assay: Post-emergence test of MBI-005, field (Example 13); assay type: in vivo
Protocol: as §3

[21] = tested on: Shepherd's purse (Capsella bursa-pastoris); assay: Post-emergence test of MBI-005, field (Example 13); assay type: in vivo
Protocol: as §3

[22] = tested on: Smallflower (Cyperus difformis); assay: Post-emergence test of MBI-005, field (Example 13); assay type: in vivo; conditions: Smallflower (sedge)
Protocol: as §3

[23] = tested on: Velvetleaf (Abutilon theophrasti); assay: Post-emergence test of MBI-005, field (Example 13); assay type: in vivo
Protocol: as §3

[24] = tested on: Smallflower umbrella sedge; assay: Post-emergent MBI-005 + Thiobencarb on Smallflower umbrella sedge (Example 21); assay type: in vivo; conditions: 14 days
Protocol: […] Negative controls were sprayed with water. Pots were randomly placed in a growth room at 25° C. and 50% RH, and watered as necessary. Treatments were replicated three times and evaluated at 7 and 14 days for visual % damage, with 0% indicating no damage and 100% indicating plant death.
Synergy was calculated as the ratio of observed (E) to expected (E/Ee) percent control using Colby's formula.

[25] = tested on: mono and dicotyledonous seedlings; conditions: cited from earlier work

CN1C(=O)[C@](O)(Cc2cccc(O)c2)N(C)C(=O)[C@@H]1Cc1c[nH]c2cccc([N+](=O)[O-])c12 [thaxtomin A]
symptoms of phytotoxicity [1]: no symptoms of phytotoxicity are observed
stunting [2]: severe stunting
stunting [3]: severe stunting
% Control MBI-005 ([4]; MBI-005 0.125 mg/mL (glufosinate line)): 20.0%
% Control MBI-005 ([4]; MBI-005 0.125 mg/mL (glyphosate line)): 28.3%
Rating at 1 mg/ml (Post-Emergence % control) [5]: ++++ (91-100)
Rating at 1 mg/ml (Post-Emergence % control) [6]: ++++ (91-100)
Rating at 1 mg/ml (Post-Emergence % control) [7]: ++ (51-80)
Rating at 1 mg/ml (Post-Emergence % control) [8]: ++ (51-80)
Rating at 1 mg/ml (Post-Emergence % control) [9]: ++ (51-80)
Rating at 1 mg/ml (Post-Emergence % control) [10]: ++++ (91-100)
Rating at 1 mg/ml (Post-Emergence % control) [11]: ++++ (91-100)
Rating at 1 mg/ml (Post-Emergence % control) [12]: ++ (51-80)
Rating at 1 mg/ml (Post-Emergence % control) [13]: ++ (51-80)
Rating at 1 mg/ml (Post-Emergence % control) [14]: ++ (51-80)
Rating at 1 mg/ml (Post-Emergence % control) [15]: +++ (81-90)
Rating at 1 mg/ml (Post-Emergence % control) [16]: ++++ (91-100)
Rating at 1 mg/ml (Post-Emergence % control) [17]: +++ (81-90)
Rating at 1 mg/ml (Post-Emergence % control) [18]: ++ (51-80)
Rating at 1 mg/ml (Post-Emergence % control) [19]: ++ (51-80)
Rating at 1 mg/ml (Post-Emergence % control) [20]: ++++ (91-100)
Rating at 1 mg/ml (Post-Emergence % control) [21]: ++++ (91-100)
Rating at 1 mg/ml (Post-Emergence % control) [22]: ++++ (91-100)
Rating at 1 mg/ml (Post-Emergence % control) [23]: ++ (51-80)
Observed Average % Efficacy (E) ([24]; first series, 2% MBI-005): 20. %
Observed Average % Efficacy (E) ([24]; first series, .5% MBI-005): 3.3%
Observed Average % Efficacy (E) ([24]; second series, 1% MBI-005): 10.0%
Observed Average % Efficacy (E) ([24]; second series, 2% MBI-005): 79.2%
concentration causing cell swelling, necrosis and growth inhibition [25]: less than 1 uM
